According to patent publication US20250120961A1, “P53 MODULATORS” (Nested Therapeutics, Inc., priority 2023, published 2025):

Biological target: His-tagged p53-Y220C DNA binding domain (Homo sapiens, UniProt P04637, Y220C)
Assay: Biochemical p53-Y220C and DNA binding assay (HTRF)
Settings: inflection point of 10 points dose titration, 4 parameter curve fit; p53-Y220C DBD 100 nM, biotinylated dsDNA 200 nM, 27 to 29° C.; read-out: HTRF IP
Summary of the method: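 DBD (aa 94-312, 100 nM) mixed with compound and biotinylated consensus dsDNA (200 nM) in DPBS/20 mM NaCl/0.5% BSA, overnight at 4 °C, then 60 min at 27-29 °C; anti-His Tb/streptavidin-d2 HTRF read. Activation normalized to reference compound (500%) and DMSO (0%); 10-point curve, inflection point reported.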

EC50 [nM]	Compound
100 to 1000	CC(O)CO/N=C/c1sc2c(N[C@@H]3CCNC[C@@H]3F)cccc2c1CC(F)(F)F (stereo partly drawn) [Example 2-13, (E)-7-(((3S,4R)-3-fluoropiperidin-4-yl)amino)-3-(2,2,2-trifluoroethyl)benzo[b]thiophene-2-carbaldehyde O-(2-hydroxypropyl) oxime]
100 to 1000	F[C@H]1CNC[C@H]1Nc1cccc2c(CC(F)(F)F)c(/C=N/OC3CCCC3)sc12 [Example 2-17, (E)-7-(((3R,4S)-4-fluoropyrrolidin-3-yl)amino)-3-(2,2,2-trifluoroethyl)benzo[b]thiophene-2-carbaldehyde O-cyclopentyl oxime]
100 to 1000	CN1C[C@H](F)[C@H](Nc2cccc3c(CC(F)(F)F)c(/C=N/OCC(C)(C)O)sc23)C1 [Example 2-21, (E)-7-(((3R,4S)-4-fluoro-1-methylpyrrolidin-3-yl)amino)-3-(2,2,2-trifluoroethyl)benzo[b]thiophene-2-carbaldehyde O-(2-hydroxy-2-methylpropyl) oxime]
100 to 1000	O=C1NCC(CO/N=C/c2sc3c(N[C@@H]4CNC[C@@H]4F)cccc3c2CC(F)(F)F)O1 (stereo partly drawn) [Example 2-23, (E)-7-(((3R,4S)-4-fluoropyrrolidin-3-yl)amino)-3-(2,2,2-trifluoroethyl)benzo[b]thiophene-2-carbaldehyde O-((2-oxooxazolidin-5-yl)methyl) oxime]
100 to 1000	CC(O/N=C/c1sc2c(N[C@@H]3CNC[C@@H]3F)cccc2c1CC(F)(F)F)c1cccnc1 (stereo partly drawn) [Example 2-25, (E)-7-(((3R,4S)-4-fluoropyrrolidin-3-yl)amino)-3-(2,2,2-trifluoroethyl)benzo[b]thiophene-2-carbaldehyde O-(1-(pyridin-3-yl)ethyl) oxime]
< 100	O=c1cccc(CO/N=C/c2sc3c(N[C@@H]4CNC[C@@H]4F)cccc3c2CC(F)(F)F)[nH]1 [Example 2-26, (E)-7-(((3R,4S)-4-fluoropyrrolidin-3-yl)amino)-3-(2,2,2-trifluoroethyl)benzo[b]thiophene-2-carbaldehyde O-((6-oxo-1,6-dihydropyridin-2-yl)methyl) oxime]
100 to 1000	CN1CC[C@@H](Nc2cccc3c(CC(F)(F)F)c(/C=N/OCc4cccc(=O)n4C)sc23)[C@@H](F)C1 [Example 2-29, (E)-7-(((3S,4R)-3-fluoro-1-methylpiperidin-4-yl)amino)-3-(2,2,2-trifluoroethyl)benzo[b]thiophene-2-carbaldehyde O-((1-methyl-6-oxo-1,6-dihydropyridin-2-yl)methyl) oxime]
100 to 1000	CN1CC[C@@H](Nc2cccc3c(CC(F)(F)F)c(/C=N\OCc4cccc(=O)n4C)sc23)[C@@H](F)C1 [Example 2-30, (Z)-7-(((3S,4R)-3-fluoro-1-methylpiperidin-4-yl)amino)-3-(2,2,2-trifluoroethyl)benzo[b]thiophene-2-carbaldehyde O-((1-methyl-6-oxo-1,6-dihydropyridin-2-yl)methyl) oxime]
< 100	CN1CC[C@@H](Nc2cccc3c(CC(F)(F)F)c(/C=N/OCc4cccc(=O)[nH]4)sc23)[C@@H](F)C1 [Example 2-31, (E)-7-(((3S,4R)-3-fluoro-1-methylpiperidin-4-yl)amino)-3-(2,2,2-trifluoroethyl)benzo[b]thiophene-2-carbaldehyde O-((6-oxo-1,6-dihydropyridin-2-yl)methyl) oxime]
100 to 1000	CN1CC[C@@H](Nc2cccc3c(SC(F)(F)F)c(/C=N/OCC(C)(C)O)sc23)[C@@H](F)C1 [Example 2-32, (E)-7-(((3S,4R)-3-fluoro-1-methylpiperidin-4-yl)amino)-3-((trifluoromethyl)thio)benzo[b]thiophene-2-carbaldehyde O-(2-hydroxy-2-methylpropyl) oxime]
< 100	CNC(=O)c1ccc(CO/N=C/c2sc3c(N[C@@H]4CCN(C)C[C@@H]4F)cccc3c2SC(F)(F)F)c(NC)c1 [Example 2-33, 4-(((((E)-(7-(((3S,4R)-3-fluoro-1-methylpiperidin-4-yl)amino)-3-((trifluoromethyl)thio)benzo[b]thiophen-2-yl)methylene)amino)oxy)methyl)-N-methyl-3-(methylamino)benzamide]
< 100	F[C@H]1CNC[C@H]1Nc1cccc2c(CC(F)(F)F)c(/C=N/OC3CCOC3)sc12 (stereo partly drawn) [Example 3-1, (E)-7-(((3R,4S)-4-fluoropyrrolidin-3-yl)amino)-3-(2,2,2-trifluoroethyl)benzo[b]thiophene-2-carbaldehyde O-tetrahydrofuran-3-yl oxime]
< 100	F[C@H]1CNC[C@H]1Nc1cccc2c(CC(F)(F)F)c(/C=N/OCc3cccnc3)sc12 [Example 3-2, (E)-7-(((3R,4S)-4-fluoropyrrolidin-3-yl)amino)-3-(2,2,2-trifluoroethyl)benzo[b]thiophene-2-carbaldehyde O-pyridin-3-ylmethyl oxime]
100 to 1000	F[C@H]1CNC[C@H]1Nc1cccc2c(CC(F)(F)F)c(/C=N/OCc3nc4ccccc4s3)sc12 [Example 3-5, (E)-7-(((3R,4S)-4-fluoropyrrolidin-3-yl)amino)-3-(2,2,2-trifluoroethyl)benzo[b]thiophene-2-carbaldehyde O-(benzo[d]thiazol-2-ylmethyl) oxime]

The remaining lines, values behind:

Compound	EC50 [nM]
CO/N=C/c1sc2c(N[C@@H]3CCN(C)C[C@@H]3F)cccc2c1CC(F)(F)F [Example 2-14, (E)-7-(((3S,4R)-3-fluoro-1-methylpiperidin-4-yl)amino)-3-(2,2,2-trifluoroethyl)benzo[b]thiophene-2-carbaldehyde O-methyl oxime]	> 1000
CN1CC[C@@H](Nc2cccc3c(CC(F)(F)F)c(/C=N/OCc4nc5ccccc5[nH]4)sc23)[C@@H](F)C1 [Example 2-15, (E)-7-(((3S,4R)-3-fluoro-1-methylpiperidin-4-yl)amino)-3-(2,2,2-trifluoroethyl)benzo[b]thiophene-2-carbaldehyde O-((1H-benzo[d]imidazol-2-yl)methyl) oxime]	100 to 1000
CC(C)(C)O/N=C/c1sc2c(N[C@@H]3CNC[C@@H]3F)cccc2c1CC(F)(F)F [Example 2-16, (E)-7-(((3R,4S)-4-fluoropyrrolidin-3-yl)amino)-3-(2,2,2-trifluoroethyl)benzo[b]thiophene-2-carbaldehyde O-(tert-butyl) oxime]	> 1000
O=C1CCC(CO/N=C/c2sc3c(N[C@@H]4CNC[C@@H]4F)cccc3c2CC(F)(F)F)N1 (stereo partly drawn) [Example 2-18, (E)-7-(((3R,4S)-4-fluoropyrrolidin-3-yl)amino)-3-(2,2,2-trifluoroethyl)benzo[b]thiophene-2-carbaldehyde O-((5-oxopyrrolidin-2-yl)methyl) oxime]	100 to 1000
O=C1NC(CO/N=C/c2sc3c(N[C@@H]4CNC[C@@H]4F)cccc3c2CC(F)(F)F)CO1 (stereo partly drawn) [Example 2-19, (E)-7-(((3R,4S)-4-fluoropyrrolidin-3-yl)amino)-3-(2,2,2-trifluoroethyl)benzo[b]thiophene-2-carbaldehyde O-((2-oxooxazolidin-4-yl)methyl) oxime]	100 to 1000
Cc1oc(=O)oc1CO/N=C/c1sc2c(N[C@@H]3CNC[C@@H]3F)cccc2c1CC(F)(F)F [Example 2-20, (E)-7-(((3R,4S)-4-fluoropyrrolidin-3-yl)amino)-3-(2,2,2-trifluoroethyl)benzo[b]thiophene-2-carbaldehyde O-((5-methyl-2-oxo-1,3-dioxol-4-yl)methyl) oxime]	100 to 1000
CC(C)N1C[C@H](F)[C@H](Nc2cccc3c(CC(F)(F)F)c(/C=N/OCC(C)(C)O)sc23)C1 [Example 2-22, (E)-7-(((3R,4S)-4-fluoro-1-isopropylpyrrolidin-3-yl)amino)-3-(2,2,2-trifluoroethyl)benzo[b]thiophene-2-carbaldehyde O-(2-hydroxy-2-methylpropyl) oxime]	< 100
F[C@H]1CNC[C@H]1Nc1cccc2c(CC(F)(F)F)c(/C=N/OC3CCC3)sc12 [Example 2-24, (E)-7-(((3R,4S)-4-fluoropyrrolidin-3-yl)amino)-3-(2,2,2-trifluoroethyl)benzo[b]thiophene-2-carbaldehyde O-cyclobutyl oxime]	100 to 1000
COc1cccc(CO/N=C/c2sc3c(N[C@@H]4CCN(C)C[C@@H]4F)cccc3c2CC(F)(F)F)n1 [Example 2-27, (E)-7-(((3S,4R)-3-fluoro-1-methylpiperidin-4-yl)amino)-3-(2,2,2-trifluoroethyl)benzo[b]thiophene-2-carbaldehyde O-((6-methoxypyridin-2-yl)methyl) oxime]	100 to 1000
COc1cccc(CO/N=C\c2sc3c(N[C@@H]4CCN(C)C[C@@H]4F)cccc3c2CC(F)(F)F)n1 [Example 2-28, (Z)-7-(((3S,4R)-3-fluoro-1-methylpiperidin-4-yl)amino)-3-(2,2,2-trifluoroethyl)benzo[b]thiophene-2-carbaldehyde O-((6-methoxypyridin-2-yl)methyl) oxime]	100 to 1000
CNC(=O)c1ccc(CO/N=C/c2oc3c(N[C@@H]4CCN(C)C[C@@H]4F)cccc3c2SC(F)(F)F)c(NC)c1 [Example 2-34, 4-(((((E)-(7-(((3S,4R)-3-fluoro-1-methylpiperidin-4-yl)amino)-3-((trifluoromethyl)thio)benzofuran-2-yl)methylene)amino)oxy)methyl)-N-methyl-3-(methylamino)benzamide]	> 1000
F[C@H]1CNC[C@H]1Nc1cccc2c(CC(F)(F)F)c(/C=N/OCc3ccccn3)sc12 [Example 3-3, (E)-7-(((3R,4S)-4-fluoropyrrolidin-3-yl)amino)-3-(2,2,2-trifluoroethyl)benzo[b]thiophene-2-carbaldehyde O-pyridin-2-ylmethyl oxime]	100 to 1000
Cn1cnc(CO/N=C/c2sc3c(N[C@@H]4CNC[C@@H]4F)cccc3c2CC(F)(F)F)n1 [Example 3-4, (E)-7-(((3R,4S)-4-fluoropyrrolidin-3-yl)amino)-3-(2,2,2-trifluoroethyl)benzo[b]thiophene-2-carbaldehyde O-((1-methyl-1H-1,2,4-triazol-3-yl)methyl) oxime]	100 to 1000
